Experimental data from patent publication US20250259704A1, “SYSTEMS AND METHODS FOR CELL-FREE ITERATIVE SITE SATURATION MUTAGENESIS AND ITS APPLICATION FOR THE DIRECTED EVOLUTION OF ENZYMES CATALYZING UNNATURAL REACTIONS” (Northwestern University, priority 2022, published 2025).

How the values were obtained:
Type in all cases: biochemical, Marinactinospora thermotolerans
amide synthetase McbA [1] = test: Amidation assay with purified McbA variants, products analyzed by LC-MS; conditions: for Fold-Increase in yield: best ML-predicted variant (ML-McbA) versus wt-McbA for the named product, purified enzyme 0.5 mg/mL, n=3
Method: (§1) Amide products (along with acid substrates and some adenylated acid intermediates) were analyzed using an Agilent G6125B Single Quadrupole LC/MSD system equipped with an electrospray ionization source set to positive ionization mode. The quenched samples were centrifuged for 10 min at 4,500×g to remove precipitated proteins. A separate 384-well plate for sample injection into the HPLC-MS was prepared by diluting 5 μL of the quenched samples with 25 μL of methanol using the Integra VIAFLO. Trace amounts of compounds were detected using MS, while many compounds were present in high enough concentration to quantify by diode array detector (DAD) at 254 nm. Compounds were separated on a Luna C18 Column (Phenomenex 00D-4251-B0) using mobile phases (A) H2O with 0.1% formic acid and (B) Acetonitrile. The general method for chromatographic separation was carried out using the following gradients at a constant flow rate of 0.5 mL/min: 0 min 5% B; 1 min 5% B; 4 min 95% B; 4.5 min 95% B; 5 min 5% B. For the MS, capillary voltage was set at 3 kV, and nitrogen gas was used for nebulizing (35 psig) and drying (12 l/min, 350° C.). The MS was calibrated using Tuning Mix (Agilent G2421-60001) before measurements were taken. MS data were acquired with a scan range of 50-600 m/z with various SIM m/z's according to which compound the inventors were screening for. LC-MS data were collected and analyzed using Agilent OpenLab CDS ChemStation software. The product yield was calculated by dividing the DAD peak area for the amide product by the sums of the peak areas of both the amide and the acid substrate.
Amidation assays for the purified McbA variants were set up similarly as described above. 8-μL reactions were assembled in triplicate, containing […], 10 mM MgCl2, 10 U/mL pyrophosphatase (Sigma I5907), 0.5 mg/mL McbA, 10% v/v DMSO, and volume to fill of 50 mM potassium phosphate pH 7.5. For assaying the production of cinchocaine and procainamide, substrates were decreased in stoichiometric amounts to 20 mM and 10 mM, respectively. This was to compensate for an observed poor solubility of these two acids (2-butoxyquinoline-4-carboxylic acid and 4-aminobenzoic acid) in the purified reaction at 10% v/v DMSO. Reactions were incubated at 37° C. for 16 hours and then quenched with 25-μL of methanol. The CAS numbers of all chemicals used in the hot spot screens, as well as the amide standards the inventors purchased, can be found in Table 1.
With the MLDE strategy validated, the approach could enable parallelized protein engineering for a wide variety of molecules (FIG. 14A). Starting with an identified target reaction from our substrate scope screen (FIGS. 5A-5F), we could use the same instance of our 1,280 single mutant McbA variant library to perform an HSS, select four hot spots, train and implement our machine learning model, and experimentally test the top 24 predictions (FIG. 14B). This approach was used to engineer distinct McbA mutants for the synthesis of an additional six pharmaceutical compounds (FIGS. 14B-14C). After identifying the best predicted variant for each reaction, the best variant for each reaction was expressed and purified, and the activity for each compound compared to wt-McbA (FIG. 14D). Fold-increase in yield observed compares wt-McbA to ML-McbA (n=3) for each small-molecule pharmaceutical. Increases in yield of the best mutant were observed ranging from 1.6-fold to 34-fold over wt-McbA for the six compounds tested.

amide synthetase McbA [2] = test: Substrate scope screen of McbA (all-by-all acids and amines, RP-HPLC); conditions: for wt conversion: conversion to the named amide product by wild-type McbA, ~1 μM enzyme, 25 mM substrates, 10% DMSO
Method: as §1, with “MS data were acquired with a scan range of 50-600 m/z with various SIM m/z's according to which compound the inventors were screening for.” left out
(§2) All high-throughput assays (hot spot screen, iterative site saturation mutagenesis, substrate scope, ML predictions validation, and ML prediction exploration) were assembled in 384-well plates (Bio-Rad) using an Integra VIAFLO liquid handling robot. […] The amidation assay was initiated by adding 3-μL of crude CFPS reaction containing an expressed McbA variant, with final concentrations of 25 mM ATP, 25 mM acid, 25 mM amine, 10% v/v DMSO, and ˜1 μM of enzyme (determined by ^14C-leucine incorporation using previously described protocols^66). […]

amide synthetase McbA [3] = test: High-throughput amidation assay with crude CFPS-expressed McbA variants (hot spot screen, ISM)
Method: as §1, with “MS data were acquired with a scan range of 50-600 m/z with various SIM m/z's according to which compound the inventors were screening for.” left out
as §2

In the case of `CCN1CCCC1CNC(=O)c1cc(S(N)(=O)=O)ccc1OC` (centres unmarked) [Sulpiride], the Fold-Increase in yield (amide synthetase McbA [1]) is reported as 6 fold.

Molecule `CCN(CC)CCNC(=O)c1ccc(N)c(Cl)c1` [Declopramide] has a Fold-Increase in yield (amide synthetase McbA [1]) of 2.7 fold.

Molecule `COc1ccc(C(=O)NCc2ccc(OCCN(C)C)cc2)cc1OC` [Itopride] has a Fold-Increase in yield (amide synthetase McbA [1]) of 1.6 fold.

Molecule `COc1cc(C(=O)NC2CCCNC2)cc(OC)c1OC` (centres unmarked) [Troxipide] has a Fold-Increase in yield (amide synthetase McbA [1]) of 34 fold.

`CCN(CC)CCNC(=O)c1ccc(N)cc1` [Procainamide] showed a Fold-Increase in yield (amide synthetase McbA [1]) of 10 fold.

Work on `CCN(CC)CCNC(=O)c1cc(Cl)c(N)cc1OC` [Metoclopramide] yielded a wt conversion (amide synthetase McbA [2]) of 3%.

For `CCCCOc1cc(C(=O)NCCN(CC)CC)c2ccccc2n1` [Cinchocaine], the Fold-Increase in yield (amide synthetase McbA [1]) was 1.7 fold and the wt conversion (amide synthetase McbA [2]) was 2%.

With `COc1cc(C(=O)NCc2ccc(OCCN(C)C)cc2)cc(OC)c1OC` [Trimethobenzamide] the Fold-Increase in yield (amide synthetase McbA [1]) was 4.1 fold.

B1: wt-McbA: wild-type amide bond synthetase McbA from Marinactinospora thermotolerans with CSL-tag, SEQ ID NO: 2 (protein)
chain: MEKKIWSHPQFEKGGSGENLYFQGGYARRVMDGIGEVAVTGAGGSVTGARLRHQVRLLAHALTEAGIPPGRGVACLHANTWRAIALRLAVQAIGCHYVGLRPTAAVTEQARAIAAADSAALVFEPSVEARAADLLERVSVPVVLSLGPTSRGRDILAASVPEGTPLRYREHPEGIAVVAFTSGTTGTPKGVAHSSTAMSACVDAAVSMYGRGPWRFLIPIPLSDLGGELAQCTLATGGTVVLLEEFQPDAVLEAIERERATHVFLAPNWLYQLAEHPALPRSDLSSLRRVVYGGAPAVPSRVAAARERMGAVLMQNYGTQEAAFIAALTPDDHARRELLTAVGRPLPHVEVEIRDDSGGTLPRGAVGEVWVRSPMTMSGYWRDPERTAQVLSGGWLRTGDVGTFDEDGHLHLTDRLQDIIIVEAYNVYSRRVEHVLTEHPDVRAAAVVGVPDPDSGEAVCAAVVVADGADPDPEHLRALVRDHLGDLHVPRRVEFVRSIPVTPAGKPDKVKVRTWFTD
modifications: CSL-tag
With B1 the “conversion (yield) of moclobemide” value (amide synthetase McbA [3]; final screening conditions, moclobemide synthesis, 25 mM ATP, acid, amine, 10% v/v DMSO, 37° C. 16 hours) was 12%, the “amide bond formation step for troxipide” value (amide synthetase McbA [1]; proficient at adenylating 3,4,5-trimethoxybenzoic acid, intermediate seen by LCMS) was “unable to catalyze amide bond formation” and the stereoselectivity (amide synthetase McbA [2]; sulpiride synthesis) was “strongly favoring the synthesis of S-sulpiride over R-sulpiride”.

B2: qm-McbAmetoclopramide: quadruple mutant of McbA from ISM campaign for metoclopramide, SEQ ID NO: 146 (protein)
chain: MEKKIWSHPQFEKGGSGENLYFQGGYARRVMDGIGEVAVTGAGGSVTGARLRHQVRLLAHALTEAGIPPGRGVACLHANTWRAIALRLAVQAIGCHYVGLRPTAAVTEQARAIAAADSAALVFEPSVEARAADLLERVSVPVVLSLGPTSRGRDILAASVPEGTPLRYREHPEGIASVAFTSGTTGTPKGVAHSSTAMSACVDAAVSMYGRGPWRFLIPIPLSDLGGELAQCTLATGGTVVLLEEFQPDAVLEAIERERATHVFLAPNWLYQLAEHPALPRSDLSSLRRVVYGGAPAVPSRVAAARERMGAVLMQNYGCQEAFFIAALTPDDHARRELLTAVGRPLPHVEVEIRDDSGGTLPRGAVGEVWVRSPMTMSGYWRDPERTAQVLSGGWLRTGDVGTFDEDGHLHLTDRLQDIIIVETYNVYSRRVEHVLTEHPDVRAAAVVGVPDPDSGEAVCAAVVVADGADPDPEHLRALVRDHLGDLHVPRRVEFVRSIPVTPAGKPDKVKVRTWFTD
With B2 the “activity over wt-McbA” value (amide synthetase McbA [3]; metoclopramide synthesis, after three rounds of ISM) was about 30 fold.

B3: ml-McbAtroxipide: best ML-predicted McbA variant for troxipide, SEQ ID NO: 155 (protein)
chain: MEKKIWSHPQFEKGGSGENLYFQGGYARRVMDGIGEVAVTGAGGSVTGARLRHQVRLLAHALTEAGIPPGRGVACLHANTWRAIALRLAVQAIGCHYVGLRPTAAVTEQARAIAAADSAALVFEPSVEARAADLLERVSVPVVLSLGPTSRGRDILAASVPEGTPLRYREHPEGIAAVAFTSGTTGTPKGVAHSSTAMSACVDAAVSMYGRGPWRFLIPIPLSDLGGELAQCTLATGGTVVLLEEFQPDAVLEAIERERATHVFLAPNWLYQLAEHPALPRSDLSSLRRVVYGGAPAVPSRVAAARERMGAVLMQNYGTQEALFIAALTPDDHARRELLTAVGRPLPHVEVEIRDDSGGTLPRGAVGEVWVRSPMTMSGYWRDPERTAQVLSGGWLRTGDVGTFDEDGHLHLTDRLQDIIIVETYNVYSVRVEHVLTEHPDVRAAAVVGVPDPDSGEAVCAAVVVADGADPDPEHLRALVRDHLGDLHVPRRVEFVRSIPVTPAGKPDKVKVRTWFTD
Molecule B3 has an increase in activity (amide synthetase McbA [1]; troxipide synthesis, versus wt-McbA) of 34 fold.
